# Measurements reported in the supplement of paper PMC11208160.
# Assay: recombinant UMI read abundance after kanamycin selection (control-corrected) (log10(CPM+1)); higher = more efficient recombination; extreme values may be limits of the assay; sequences stand for … in AGTGCAGAGAAAATCGGCCAGTTTTCTCTGCCTGCAGTCCGCATGCCGTGGGACCCCTTGGGTTCTAACCTGTTGCCTAGATTTATGCAGCGGACTGCCTTTCTCCCAAAGTGATAAACCGG…AGGTTGGTTTCACT; site = the 11-nt donor
# Outline: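 Counts of recombinant UMIs were reported as log10(CPM+1). Before that, they were converted to CPM, averaged over replicates and scaled using control-derived factors. They came from PCR across the donor–target junction after Escherichia coli carrying the pair library and target plasmid was plated on IPTG (0.07 mM) plus kanamycin, or unselected, in two replicates each.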
# 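Also: IS621 bridge recombinase in Escherichia coli cells against a fixed T5 target plasmid.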
row,Sequence,recombinant UMI read abundance (log10)
1,CGGGTTCCATGGACCGGTTTTCCCGGTAATCCGTATTTGAC (site CGGGTTCCTGT),0.77
2,CGGTAGTCATGGACCGGTTTTCCCGGTAATCCGTATTTGCC (site CGGAAGTCTGG),0.759
3,CGGTAGTCATGGACCGGTTTTCCCGGTAATCCGTATTTGCC (site CGGCAGTCTGG),1.47
4,CGGTAGTCATGGACCGGTTTTCCCGGTAATCCGTATTTGCC (site CGGGAGTCTGG),0
5,CGGTAGTCATGGACCGGTTTTCCCGGTAATCCGTATTTGCC (site CGGTAGTCTGG),2.78
6,CGGTATACATGGACCGGTTTTCCCGGTAATCCGTATTTGTT (site CGGAATCCTAA),0
7,CGGTATACATGGACCGGTTTTCCCGGTAATCCGTATTTGTT (site CGGTATACTAA),1.62
8,CGGTATCCATGGACCGGTTTTCCCGGTAATCCGTATTTGAT (site CGGAATCCTAA),0.00344
9,CGGTATCCATGGACCGGTTTTCCCGGTAATCCGTATTTGAT (site CGGTATCCTAT),0.734
10,CGGTATCCATGGACCGGTTTTCCCGGTAATCCGTATTTGCC (site CGGTATCCTGG),0
11,CGGTCATCATGGACCGGTTTTCCCGGTAATCCGTATTTGTT (site CGATCATCTAG),0
12,CGGTCATCATGGACCGGTTTTCCCGGTAATCCGTATTTGTT (site CGGTCATCTAA),0.27
13,CGGTCGACATGGACCGGTTTTCCCGGTAATCCGTATTTGGA (site CGGTCGACTTC),0.112
14,CGGTGCGCATGGACCGGTTTTCCCGGTAATCCGTATTTGCC (site CGGTGCGCTGG),1.48
15,CGGTGTCCATGGACCGGTTTTCCCGGTAATCCGTATTTGTT (site CGGAATCCTAA),0.0121
16,CGGTGTCCATGGACCGGTTTTCCCGGTAATCCGTATTTGTT (site CGGTGTCCTAA),0.0166

row,Sequence,recombinant UMI read abundance (log10)
1,CGGTTAGCATGGACCGGTTTTCCCGGTAATCCGTATTTGTG (site CAGTTAGCTCA),0.694
2,CGGTTAGCATGGACCGGTTTTCCCGGTAATCCGTATTTGTG (site CCGTTAGCTCA),0
3,CGGTTAGCATGGACCGGTTTTCCCGGTAATCCGTATTTGTG (site CGGTTAGCTCA),1.7
4,CGGTTAGCATGGACCGGTTTTCCCGGTAATCCGTATTTGTG (site CTGTTAGCTCA),0.256
5,CGTACAACATGGACCGGTTTTCCCGGTAATCCGTATTTGGT (site CGTACAACTAC),1.09
6,CGTAGCGCATGGACCGGTTTTCCCGGTAATCCGTATTTGTT (site CGTAGCGCTAA),1.05
7,CGTCAGACATGGACCGGTTTTCCCGGTAATCCGTATTTGAG (site CGTAAGACTCT),0.182
8,CGTCAGACATGGACCGGTTTTCCCGGTAATCCGTATTTGAG (site CGTCAGACTCT),1.16
9,CGTCAGACATGGACCGGTTTTCCCGGTAATCCGTATTTGAG (site CGTGAGACTCT),0.016
10,CGTCAGACATGGACCGGTTTTCCCGGTAATCCGTATTTGAG (site CGTTAGACTCT),0.0174
11,CGTCGACCATGGACCGGTTTTCCCGGTAATCCGTATTTGAT (site CGTCGACCTAT),0.0862
12,CGTCGTACATGGACCGGTTTTCCCGGTAATCCGTATTTGCT (site CGACGTACTAG),0.689
13,CGTCGTACATGGACCGGTTTTCCCGGTAATCCGTATTTGCT (site CGCCGTACTAG),1.22
14,CGTCGTACATGGACCGGTTTTCCCGGTAATCCGTATTTGCT (site CGGCGTACTAG),0.794
15,CGTCGTACATGGACCGGTTTTCCCGGTAATCCGTATTTGCT (site CGTCGTACTAG),1.76
16,CGTCTCCCATGGACCGGTTTTCCCGGTAATCCGTATTTGAG (site CGTCTCCCTCT),0.0129
